Measurements from patent US20050148632A1, “Therapeutic agent for intestinal diseases and visceral pain” (priority 2002, published 2005).

Test system: 5-hydroxytryptophan (5-HTP)-induced defecation models of mice
Experiment: Effect on 5-hydroxytryptophan (5-HTP)-induced defecation models of mice in vivo
Settings: male SLC:ICR mice; 30 mg/kg orally, 30 minutes before 10 mg/kg 5-HTP s.c.; stool scored during 30 minutes
Method: Effect on 5-hydroxytryptophan (5-HTP)-induced defecation models of mice in vivo:
The tests were conducted by using (R)-3-(2-(2-(4-methylpiperidine-1-yl)-ethyl)pyrrolidine-1-sulfonyl)phenol (synthesized according to a method described in WO 97/48681) known to be a selective 5-HT7 receptor antagonist as test compound 1 by a method of G. J. Sanger et al. (British Journal of Pharmacology, 130: 706-712, 2000).
Male SLC:ICR mice (6 weeks) were placed in a series of 5 stainless steel cages for mice. After the acclimation for one hour or longer, 30 mg/kg of test compound 1 was orally administered to them (n=10). 30 minutes after, 10 mg/5mL/kg of 5-HTP (or 5 mL/kg of physiological saline in a group in which 5-HTP was not used) was subcutaneously administered to the mice . The stool excreted by each mouse during 30 minutes after the administration was observed (the results were scored as follows: 0: normal stool or no defecation, 1: diarrhea or soft stool). The inhibitory rate (%) of test compound 1 was calculated while the score obtained by subtracting the score of the 5-HTP-free group from the score of the 5-HTP group was determined to be 100%.

SMILES: CC1CCN(CC[C@H]2CCCN2S(=O)(=O)c2cccc(O)c2)CC1 [test compound 1, (R)-3-(2-(2-(4-methylpiperidine-1-yl)-ethyl)pyrrolidine-1-sulfonyl)phenol]
- control rate (inhibitory rate of 5-HTP-induced diarrhea/soft stool score): 70%
